# Test: recombinant UMI read abundance after kanamycin selection (control-corrected) (log10(CPM+1)); higher = more efficient recombination; extreme values may be limits of the assay; sequences stand for … in AGTGCAGAGAAAATCGGCCAGTTTTCTCTGCCTGCAGTCCGCATGCCGTGGGACCCCTTGGGTTCTAACCTGTTGCCTAGATTTATGCAGCGGACTGCCTTTCTCCCAAAGTGATAAACCGG…AGGTTGGTTTCACT; site = the 11-nt donor
# How it was run: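 Values, expressed as log10(CPM+1), derive from recombinant UMI counts converted to CPM, averaged across replicates and scaled by control-derived factors. Plating was with IPTG (0.07 mM) plus kanamycin or unselected, two replicates each. The screen pooled donor and donor-binding-loop pairs for the IS621 bridge recombinase in Escherichia coli.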
# 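Note: IS621 bridge recombinase in Escherichia coli cells against a fixed T5 target plasmid.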
row,Sequence,recombinant UMI read abundance (log10)
1,TCCAATTCATGGACCGGTTTTCCCGGTAATCCGTATTTGCC (site TCCTATTCTGG),0
2,TCCAATTCATGGACCGGTTTTCCCGGTAATCCGTATTTGCC (site TCGAATTCTGG),0
3,TCCAATTCATGGACCGGTTTTCCCGGTAATCCGTATTTGCC (site TCTAATTCTGG),0
4,TCCAATTCATGGACCGGTTTTCCCGGTAATCCGTATTTGCC (site TGCAATTCTGG),0
5,TCCAATTCATGGACCGGTTTTCCCGGTAATCCGTATTTGCC (site TTCAATTCTGG),0
6,TCCAATTCATGGACCGGTTTTCCCGGTAATCCGTATTTGTC (site TCCAATTCTGA),0
7,TCCAATTCATGGACCGGTTTTCCCGGTAATCCGTATTTGTC (site TCCAATTCTGC),0
8,TCCAATTCATGGACCGGTTTTCCCGGTAATCCGTATTTGTC (site TCCAATTCTGG),0
9,TCCAATTCATGGACCGGTTTTCCCGGTAATCCGTATTTGTC (site TCCAATTCTGT),0
10,TCCACCGCATGGACCGGTTTTCCCGGTAATCCGTATTTGCC (site TCCACCGCTAG),0.0325
11,TCCACCGCATGGACCGGTTTTCCCGGTAATCCGTATTTGCC (site TCCACCGCTCG),0.0335
12,TCCACCGCATGGACCGGTTTTCCCGGTAATCCGTATTTGCC (site TCCACCGCTGG),0
13,TCCACCGCATGGACCGGTTTTCCCGGTAATCCGTATTTGCC (site TCCACCGCTTG),0.00442
14,TCCAGTACATGGACCGGTTTTCCCGGTAATCCGTATTTGAG (site TCCAGTACTCT),0.00906
15,TCCATATCATGGACCGGTTTTCCCGGTAATCCGTATTTGTC (site ACCATATCTGA),0
16,TCCATATCATGGACCGGTTTTCCCGGTAATCCGTATTTGTC (site CCCATATCTGA),0
17,TCCATATCATGGACCGGTTTTCCCGGTAATCCGTATTTGTC (site GCCATATCTGA),0
18,TCCCACACATGGACCGGTTTTCCCGGTAATCCGTATTTGTA (site ACCCACACTTA),0.0202
19,TCCCACACATGGACCGGTTTTCCCGGTAATCCGTATTTGTA (site CCCCACACTTA),0.0988

row,Sequence,recombinant UMI read abundance (log10)
1,TCCCACACATGGACCGGTTTTCCCGGTAATCCGTATTTGTA (site GCCCACACTTA),0.0195
2,TCCCACACATGGACCGGTTTTCCCGGTAATCCGTATTTGTA (site TCCCACACTTA),0.42
3,TCCCACTCATGGACCGGTTTTCCCGGTAATCCGTATTTGGG (site TCCCACTCTCC),0.0433
4,TCCCCAACATGGACCGGTTTTCCCGGTAATCCGTATTTGCT (site TCCCCAACTAG),0.417
5,TCCCCTTCATGGACCGGTTTTCCCGGTAATCCGTATTTGAG (site TCCCCTTCTCT),0
6,TCCCGCCCATGGACCGGTTTTCCCGGTAATCCGTATTTGGC (site TCCCGCCCTGC),0
7,TCCGAGACATGGACCGGTTTTCCCGGTAATCCGTATTTGCG (site TCAGAGACTCG),0.0174
8,TCCGAGACATGGACCGGTTTTCCCGGTAATCCGTATTTGCG (site TCCGAGACTCG),0.0319
9,TCCGAGACATGGACCGGTTTTCCCGGTAATCCGTATTTGCG (site TCGGAGACTCG),0.0214
10,TCCGAGACATGGACCGGTTTTCCCGGTAATCCGTATTTGCG (site TCTGAGACTCG),0.0115
11,TCCGCCGCATGGACCGGTTTTCCCGGTAATCCGTATTTGCG (site TCCACCGCTCG),0
12,TCCGCCGCATGGACCGGTTTTCCCGGTAATCCGTATTTGCG (site TCCCCCGCTCG),0.00514
13,TCCGCCGCATGGACCGGTTTTCCCGGTAATCCGTATTTGCG (site TCCGCCGCTCG),0.0179
14,TCCGCCGCATGGACCGGTTTTCCCGGTAATCCGTATTTGCG (site TCCTCCGCTCG),0.00863
15,TCCGCTACATGGACCGGTTTTCCCGGTAATCCGTATTTGAT (site TCCGCTACTAT),0.00615
16,TCCGGGTCATGGACCGGTTTTCCCGGTAATCCGTATTTGTA (site TCCGGGTCTTA),0.413
17,TCCTAATCATGGACCGGTTTTCCCGGTAATCCGTATTTGTC (site TCCTAATCTGA),0
18,TCCTACCCATGGACCGGTTTTCCCGGTAATCCGTATTTGAG (site TCCTACCCTCT),0.0177
19,TCCTAGCCATGGACCGGTTTTCCCGGTAATCCGTATTTGCC (site ACCTAGCCTGG),0

row,Sequence,recombinant UMI read abundance (log10)
1,TCCTAGCCATGGACCGGTTTTCCCGGTAATCCGTATTTGCC (site CCCTAGCCTGG),0
2,TCCTAGCCATGGACCGGTTTTCCCGGTAATCCGTATTTGCC (site GCCTAGCCTGG),0.221
3,TCCTAGCCATGGACCGGTTTTCCCGGTAATCCGTATTTGCC (site TCCTAGCCTGG),0
4,TCGACTCCATGGACCGGTTTTCCCGGTAATCCGTATTTGCC (site TCGACTCCTGG),0
5,TCGAGCGCATGGACCGGTTTTCCCGGTAATCCGTATTTGCT (site TCGAGCGCTAG),1.5
6,TCGAGGACATGGACCGGTTTTCCCGGTAATCCGTATTTGGC (site TCGAGGACTGC),0
7,TCGAGTCCATGGACCGGTTTTCCCGGTAATCCGTATTTGGC (site TCGAGTCCTGC),0
8,TCGCAGCCATGGACCGGTTTTCCCGGTAATCCGTATTTGGA (site AAAGTCTCTCG),0
9,TCGCATTCATGGACCGGTTTTCCCGGTAATCCGTATTTGTC (site TCGCATTCTGA),0
10,TCGCCGCCATGGACCGGTTTTCCCGGTAATCCGTATTTGGG (site TCGCCGCCTCC),0.00807
11,TCGCCGGCATGGACCGGTTTTCCCGGTAATCCGTATTTGGC (site TAGCCGGCTGC),0
12,TCGCCGGCATGGACCGGTTTTCCCGGTAATCCGTATTTGGC (site TCGCCGGCTGC),0
13,TCGCCGGCATGGACCGGTTTTCCCGGTAATCCGTATTTGGC (site TGGCCGGCTGC),0
14,TCGCCGGCATGGACCGGTTTTCCCGGTAATCCGTATTTGGC (site TTGCCGGCTGC),0
15,TCGCTAGCATGGACCGGTTTTCCCGGTAATCCGTATTTGCC (site TCGCTAGCTGG),0
16,TCGCTGTCATGGACCGGTTTTCCCGGTAATCCGTATTTGTG (site TCGCTGTCTCA),0.936
17,TCGGAGACATGGACCGGTTTTCCCGGTAATCCGTATTTGCG (site TCAGAGACTCG),1.72
18,TCGGAGACATGGACCGGTTTTCCCGGTAATCCGTATTTGCG (site TCCGAGACTCG),0.44
19,TCGGAGACATGGACCGGTTTTCCCGGTAATCCGTATTTGCG (site TCGGAGACTCG),2.41

# From the supplement of paper PMC11208160
